Test results taken from ChEMBL document CHEMBL1201862, “PubChem BioAssay data set” (2004).
Calls of active or inactive are those of the source.

Legend:
[1] = target: Mitogen-activated protein kinase 10 (Homo sapiens, UniProt P53779); test: Dose response biochemical screening assay for inhibitors of c-Jun N-Terminal Kinase 3 (JNK3). [Related pubchem assays: 746 ]
[2] = target: T1, Interleukin-8 (Homo sapiens, UniProt P10145); test: Dose Response confirmation of uHTS small molecule hits for cystic fibrosis induced NFkb Inhibitors in a PAF-induced IL8 counterscreen.; assay type: functional; details: read-out: IC50_Mean
T1 sequence (P10145 whole entry): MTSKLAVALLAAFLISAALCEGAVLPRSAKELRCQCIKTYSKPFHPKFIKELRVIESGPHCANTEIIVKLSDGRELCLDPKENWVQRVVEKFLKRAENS

[3] = target: T2, Aryl hydrocarbon receptor (Homo sapiens, UniProt P35869); details: Potency;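 also: confirmatory quantitative high-throughput screen measuring activation of the AhR signaling pathway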
T2 sequence (P35869 whole entry): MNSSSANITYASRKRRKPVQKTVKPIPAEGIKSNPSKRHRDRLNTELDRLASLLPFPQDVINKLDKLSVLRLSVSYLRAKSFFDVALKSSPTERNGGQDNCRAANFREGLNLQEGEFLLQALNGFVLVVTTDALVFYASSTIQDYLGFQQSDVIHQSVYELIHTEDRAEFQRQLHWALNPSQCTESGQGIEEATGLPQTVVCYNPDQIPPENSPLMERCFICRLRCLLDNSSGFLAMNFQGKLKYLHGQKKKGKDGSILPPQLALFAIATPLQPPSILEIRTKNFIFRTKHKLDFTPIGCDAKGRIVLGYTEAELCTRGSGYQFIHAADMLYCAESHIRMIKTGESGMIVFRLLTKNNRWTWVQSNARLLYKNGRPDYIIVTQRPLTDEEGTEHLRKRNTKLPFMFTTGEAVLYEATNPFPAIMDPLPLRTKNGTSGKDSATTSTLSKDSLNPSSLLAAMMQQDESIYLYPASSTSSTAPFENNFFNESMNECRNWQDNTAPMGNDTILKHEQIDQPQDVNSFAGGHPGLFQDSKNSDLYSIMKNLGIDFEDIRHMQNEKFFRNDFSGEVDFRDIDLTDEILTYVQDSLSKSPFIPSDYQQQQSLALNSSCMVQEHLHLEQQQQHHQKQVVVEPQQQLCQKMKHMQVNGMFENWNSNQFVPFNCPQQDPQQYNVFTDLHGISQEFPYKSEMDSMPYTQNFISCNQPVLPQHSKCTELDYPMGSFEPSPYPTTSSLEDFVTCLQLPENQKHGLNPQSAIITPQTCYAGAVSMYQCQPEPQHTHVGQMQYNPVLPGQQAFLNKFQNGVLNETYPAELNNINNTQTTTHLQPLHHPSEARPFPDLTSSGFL

[4] = Shn3 3'UTR reporter inhibitors, dose response, cell-based, Clone20 osteoblasts, firefly luciferase, cherry-picked (AID 624132); assay type: functional;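 also: firefly luciferase luminescence from reporter carrying the Shn3 3'UTR in osteoblasts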
[5] = HepG2 cell cytotoxicity, dose response, cytotoxicity control for Shn3 inhibitor project, CellTiter-Glo, cherry-picked (AID 624134); assay type: functional, cell-based
[6] = control 3'UTR Renilla luciferase suppression, dose response, counter-screen for Shn3 inhibitor project, cell-based, Clone20-Shn3RL, cherry-picked (AID 624133); assay type: functional
[7] = target: Protein Wnt-3a (Mus musculus, UniProt P27467); test: Wnt3a-driven reporter signaling inhibition, dose response, selectivity assay for Gli-SUFU antagonist project, Wnt-LIGHT cells, luminescence (AID 651570); assay type: functional; details: read-out: IC50_Mean;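 also: Wnt-LIGHT reporter cells stimulated with conditioned medium from Wnt3a-producing cells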
[8] = inhibitors of HIV Env-driven cell fusion, dose response, cherry-pick (AID 652057); assay type: functional, cell-based
[9] = off-target signal loss in HeLa-CEM21 co-culture – HeLa F-luc CTL cells, cherry-picked, counter-screen for HIV-1 Env fusion inhibitor project, dose response (AID 652040); assay type: functional, cell-based;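 also: potency for signal decrease marking cytotoxic or nonspecific inhibition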
[10] = inhibitors of clade B AD8 Env fusion, dose response, cell-based, cherry-pick (AID 652062); assay type: functional;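 also: luciferase signal from cell-cell fusion driven by HIV-1 clade B AD8 Env; potency is for inhibitors of fusion seen as a drop in luminescence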
[11] = target: T3, Methionyl-tRNA synthetase, putative (Trypanosoma brucei brucei, UniProt Q38C91); assay type: functional, Trypanosoma brucei brucei strain 927/4 GUTat10.1
T3 sequence (Q38C91 whole entry): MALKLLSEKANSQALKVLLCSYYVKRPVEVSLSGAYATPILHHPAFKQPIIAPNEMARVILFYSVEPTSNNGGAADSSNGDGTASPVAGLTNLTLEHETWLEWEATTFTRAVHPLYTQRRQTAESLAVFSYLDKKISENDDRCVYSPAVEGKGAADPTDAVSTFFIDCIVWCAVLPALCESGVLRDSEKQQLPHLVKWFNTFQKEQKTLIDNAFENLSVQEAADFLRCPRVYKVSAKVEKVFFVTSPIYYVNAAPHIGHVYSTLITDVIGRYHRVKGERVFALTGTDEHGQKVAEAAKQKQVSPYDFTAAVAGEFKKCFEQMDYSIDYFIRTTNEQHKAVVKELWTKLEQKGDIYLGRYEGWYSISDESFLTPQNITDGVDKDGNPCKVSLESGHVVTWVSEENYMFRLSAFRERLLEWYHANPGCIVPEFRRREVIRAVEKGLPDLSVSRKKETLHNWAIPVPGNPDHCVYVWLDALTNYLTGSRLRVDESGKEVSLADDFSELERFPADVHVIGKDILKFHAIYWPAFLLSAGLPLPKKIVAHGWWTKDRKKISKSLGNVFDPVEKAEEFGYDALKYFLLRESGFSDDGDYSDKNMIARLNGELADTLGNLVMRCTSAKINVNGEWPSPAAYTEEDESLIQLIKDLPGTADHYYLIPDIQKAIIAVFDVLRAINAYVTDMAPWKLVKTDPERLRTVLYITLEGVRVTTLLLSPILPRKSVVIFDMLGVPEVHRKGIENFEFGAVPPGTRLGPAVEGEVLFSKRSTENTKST

[12] = Counterscreen for inhibitors of Trypanosoma brucei methionyl tRNA synthetase (MetRS): Luminescence-based cell-based high throughput dose response assay to identify compounds that are cytotoxic to Jurkat human T lymphocyte cells.; assay type: functional
[13] = target: T3, Methionyl-tRNA synthetase, putative; assay type: functional, Trypanosoma brucei brucei strain 927/4 GUTat10.1; remark: listed apart in the source
[14] = target: Potassium voltage-gated channel subfamily KQT member 2 (Rattus norvegicus, UniProt O88943); test: KCNQ2 potassium channel inhibitors, dose response, cell-based, automated electrophysiology, set II, rat KCNQ2 (AID 588637); assay type: functional
Chain of Potassium voltage-gated channel subfamily KQT member 2 (O88943 whole entry): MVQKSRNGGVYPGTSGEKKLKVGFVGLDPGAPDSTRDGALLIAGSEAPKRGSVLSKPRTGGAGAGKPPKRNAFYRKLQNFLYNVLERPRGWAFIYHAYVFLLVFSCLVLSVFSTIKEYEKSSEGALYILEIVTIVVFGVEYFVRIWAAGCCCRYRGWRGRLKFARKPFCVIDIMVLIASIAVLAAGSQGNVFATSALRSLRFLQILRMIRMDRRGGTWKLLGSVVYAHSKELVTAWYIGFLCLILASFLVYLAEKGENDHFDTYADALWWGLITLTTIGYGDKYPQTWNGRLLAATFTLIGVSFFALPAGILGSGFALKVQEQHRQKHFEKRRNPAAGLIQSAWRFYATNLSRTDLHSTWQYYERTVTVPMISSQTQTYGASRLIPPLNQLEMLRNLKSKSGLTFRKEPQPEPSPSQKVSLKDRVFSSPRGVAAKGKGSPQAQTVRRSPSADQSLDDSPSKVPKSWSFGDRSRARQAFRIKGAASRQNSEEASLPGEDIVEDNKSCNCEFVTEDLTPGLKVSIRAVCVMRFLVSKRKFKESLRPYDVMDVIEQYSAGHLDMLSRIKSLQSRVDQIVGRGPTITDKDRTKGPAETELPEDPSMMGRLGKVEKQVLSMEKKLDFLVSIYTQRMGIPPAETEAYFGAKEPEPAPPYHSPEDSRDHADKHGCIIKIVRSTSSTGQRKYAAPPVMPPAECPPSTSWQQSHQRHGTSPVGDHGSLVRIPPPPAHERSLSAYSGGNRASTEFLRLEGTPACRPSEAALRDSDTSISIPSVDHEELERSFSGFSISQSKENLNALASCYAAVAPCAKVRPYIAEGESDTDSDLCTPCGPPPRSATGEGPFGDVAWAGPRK

Chain of Protein Wnt-3a (P27467 whole entry, the tested form may be a part): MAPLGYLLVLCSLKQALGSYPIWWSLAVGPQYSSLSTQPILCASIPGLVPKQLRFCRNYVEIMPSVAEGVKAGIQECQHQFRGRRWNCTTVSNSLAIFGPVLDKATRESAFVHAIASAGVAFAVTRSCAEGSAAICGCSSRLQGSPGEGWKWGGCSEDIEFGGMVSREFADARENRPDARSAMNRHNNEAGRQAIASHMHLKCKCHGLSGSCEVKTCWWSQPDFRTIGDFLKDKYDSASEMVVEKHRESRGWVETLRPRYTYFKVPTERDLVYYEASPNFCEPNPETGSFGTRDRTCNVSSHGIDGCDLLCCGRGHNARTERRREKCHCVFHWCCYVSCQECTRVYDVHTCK
Chain of Mitogen-activated protein kinase 10 (P53779 whole entry): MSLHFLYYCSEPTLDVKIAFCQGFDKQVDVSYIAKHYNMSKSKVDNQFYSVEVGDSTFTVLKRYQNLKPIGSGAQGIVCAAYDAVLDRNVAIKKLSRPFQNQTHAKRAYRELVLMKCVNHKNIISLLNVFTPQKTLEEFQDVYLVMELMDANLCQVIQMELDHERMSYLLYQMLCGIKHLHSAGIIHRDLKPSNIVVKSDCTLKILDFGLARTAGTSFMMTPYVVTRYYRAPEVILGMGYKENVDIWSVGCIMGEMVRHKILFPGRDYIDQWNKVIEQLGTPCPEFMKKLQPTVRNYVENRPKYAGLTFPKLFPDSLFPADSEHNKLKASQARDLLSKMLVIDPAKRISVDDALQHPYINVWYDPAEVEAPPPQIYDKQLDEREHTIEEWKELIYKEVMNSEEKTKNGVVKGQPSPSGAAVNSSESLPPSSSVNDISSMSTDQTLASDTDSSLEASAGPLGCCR

SMILES: COc1ccc(-c2cnc(N)nc2-c2ccc(OC)cc2O)cc1
- IC50 [1]: 19.9 µM (not active)
- IC50 [2]: 14.6 µM (inactive)

SMILES: Cc1ccc2c(c1[N+](=O)[O-])C(=O)c1ccccc1C2=O
- AC50 [3]: 17.8 µM (inconclusive)

SMILES: CCC(C)NS(=O)(=O)c1ccc(S(=O)(=O)N2CCCC3(CCCCC3)C2)cc1 (stereo not given)
- AC50 [4]: 3.44 µM (active)
- AC50 [5]: 6.54 µM (active)
- AC50 [6]: 5.9 µM (active)
- IC50 [7]: 5.16 µM (active)
- AC50 [8]: 21.4 µM (active)
- AC50 [9]: 58.9 µM (active)
- AC50 [10]: 11.7 µM (active)

SMILES: COc1cccc(C2c3[nH]c4ccccc4c3C[C@H]3C(=O)N(C4CC4)CC(=O)N23)c1 (stereo not given in full)
- IC50 [11]: 118 µM (inactive)
- IC50 [12]: 83.2 µM (inactive)
- IC50 [13]: 36.8 µM (inactive)

SMILES: CCc1sc(C(=O)Nc2ccccc2N2CCOCC2)cc1C
- IC50 [14]: 5.75 µM (active)

SMILES: CCC(C(=O)Nc1ccccc1N1CCCC1)c1ccccc1 (stereo not given)
- IC50 [14]: 0.161 µM (active)
